The subject of test [1] is Telo24 (human telomeric oligonucleotide, telomeric G-quadruplex) (DNA, G4) TTAGGGTTAGGGTTAGGGTTAGGG
In words: microscale thermophoresis (MST). To be noted: K+ 100 mM KCl (plus potassium phosphate); 10 mM K2HPO4/KH2PO4 pH 7.0; 30 min; 1 μM DNA; SC 0.15625-320 μM; apparent. Background: MST reads how a fluorescent partner responds to local heating, with and without ligand.

In test [2] the target is T1, hTERT (telomerase reverse transcriptase) (Homo sapiens, UniProt O14746).
T1 construct: gene TERT
T1 sequence (O14746 325-550 limits assumed): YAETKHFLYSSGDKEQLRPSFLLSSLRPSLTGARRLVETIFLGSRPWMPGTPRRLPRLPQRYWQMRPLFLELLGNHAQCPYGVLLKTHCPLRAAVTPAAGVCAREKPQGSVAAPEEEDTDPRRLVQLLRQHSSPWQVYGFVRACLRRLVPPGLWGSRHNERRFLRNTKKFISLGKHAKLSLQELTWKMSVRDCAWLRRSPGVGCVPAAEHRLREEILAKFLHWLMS
As to the kind of experiment: fluorescence polarization with His-hTRBD, BSA negative control; supported by TRAP inhibition of reconstituted GST-opTERT/hTERC and immunoprecipitated FLAG-hTERT telomerase (IC50 […]). Type of test: binding. On the technique in general: In fluorescence polarisation assays a small probe gives low polarisation when free and higher when bound to something large.

Each structure is given as a SMILES string.

A word on the EC50: it is the midpoint of the concentration-response curve. `C[n+]1cc2c3c(ccc2c2ccc4cc5c(cc4c21)OCO5)OCO3` [SC, Sanguinarine chloride]: the EC50 in test [1] was 120 µM; in test [2], 24.8 µM.

The record behind these values is PMC9104802 (Cells, 2022).
